Test results published in paper PMC4788259 (PLoS Neglected Tropical Diseases, 2016).
“And” between values parts separate entries of the source, which are not always exact repeats. Equal entries are not always repeated. Where two headings read alike, the source gives them in different places.

Experiments:
[1] = test system: E. multilocularis metacestodes; assay: PGI assay: phosphoglucose isomerase release from damaged metacestodes; format: cell-based, Echinococcus multilocularis; settings: 5 days; for activity in PGI assay at 1 μM: triplicates; for PGI (% of DB1127 at 10 uM): single wells, relative to DB1127 (10 μM)
Outline: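 Damage readout: PGI enzyme release after 5-day in vitro culture of 2–4 mm metacestode vesicles (H95 strain, from i.p.-infected BALB/c mice) with compound. Primary screen: 10 μM per single well, 0.1% DMSO negative control. EC50 calculated from PGI release data.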

[2] = test system: newly transformed schistosomula; parameters: method as in PMID 24416463; settings: in vitro; read-out: IC50 against newly transformed schistosomula; cited from earlier work
adult worms = test system: adult worms; parameters: method as in PMID 24416463; settings: in vitro; read-out: IC50 against adult worms; cited from earlier work
[3] = test system: E. multilocularis metacestodes; assay: Peroral treatment of secondary infected mice; format: in vivo, BALB/c mice; settings: p.o. gavage 5 days per week, 4 weeks, MMV665807 100 mg/kg, ABZ 200 mg/kg
Experimental: (§1) Animals were kept at a temperature-controlled 12/12 hours light cycle with food and water ad libitum and according to the Swiss Animal protection law. For the in vivo treatment of MMV665807, BALB/c mice (from Charles River, Sulzfeld, Germany), at the age of 8 weeks with an average body weight of 20 g, were i.p. infected with 200 μL metacestodes vesicle suspension. This material was prepared from in vitro-cultured metacestodes (strain H95), which were disintegrated by pressing the parasites through a 1 mL pipette tip. Parasite tissue was centrifuged at 500 x g for 5 min at room temperature before being mixed 1:1 in PBS.
Peroral (p.o.) drug treatments by gavage were initiated 6 weeks post-infection and performed as follows: group 1 received no treatment at all; group 2 received 100 μL corn oil containing 7.8 μL DMSO; group 3 mice were treated with 100 μL corn oil containing albendazole (ABZ) in 7.8 μL DMSO, in order to obtain a dosage of 200 mg/kg body weight (positive control); group 4 was treated with 100 μL corn oil containing MMV665807 in 7.8 μL DMSO, resulting in 100 mg/kg body weight. All mice were treated for a total time period of 4 weeks, with consecutive treatment during 5 days per week, and interruption of treatment for 2 days each week. At the end of the treatment, all mice were sedated by isoflurane and subsequently euthanized by CO2. All parasite tissue was resected, placed into a petri dish, and the parasite mass was weighed. Statistical analysis of the in vivo experiments was performed in R version 3.0.1. The data distribution was checked by Shapiro-Wilk test and eventual differences between treatment groups identified by the non-parametric Kruskal-Wallis test. P values were calculated by the non-parametric Wilcoxon […] test with Bonferroni-adjustment. Boxplot visualizations of the data were prepared in Microsoft Excel 2010.

[4] = test system: E. multilocularis metacestodes; assay: Intraperitoneal treatment of secondary infected mice; format: in vivo, BALB/c mice; settings: 4 weeks, MMV665807 100 mg/kg i.p. three times per week, ABZ 200 mg/kg p.o. 5 days per week
Experimental: as §1
I.p. drug treatments were initiated 2 weeks post-infection. 32 infected mice were randomly separated into 4 groups with 2 times 4 animals per cage. All animals were exposed to 4 weeks of treatment, with five consecutive days of drug application followed by a 2 day recovery period without treatment. Treatment groups were defined as follows: group 1 (control) received 50 μL of corn oil by gavage on 5 days per week, and an i.p. injection of DMSO in corn oil (4 μL DMSO and 46 μL corn oil) on three days per week; group 2 also received corn oil by gavage 5 days per week, and an i.p. injection of MMV665807 (100 mg/kg in 4 μL DMSO plus 46 μL corn oil) three times per week; group 3 was treated with the standard albendazole treatment (albendazole in corn oil, 200 mg/kg/ day for 5 days each week) and also received an i.p. injection of 4 μl DMSO suspended in 46 μl corn oil three times per week; group 4 received a combined treatment consisting of albendazole in corn oil by gavage (200 mg/kg/day 5 days per week) and an i.p. injection of MMV665807 (100 mg/kg three times per week). After 4 weeks of treatment, mice were euthanized and the parasite mass resected and measured as described above. Statistical analyses were performed as described above.

S. mansoni = test system: S. mansoni; parameters: method as in PMID 24416463; settings: cited from earlier work

SMILES | PGI (% of DB1127 at 10 uM) [1] | further results
Brc1ccc(Nc2nc3ccccc3nc2Nc2ccc(Br)cc2)cc1 [MMV007224] | – | activity in PGI assay at 1 μM [1]: lost its activity; IC50 [2]: > 33 µM; IC50 (adult worms): 0.8 µM
CCCSc1ccc2nc(NC(=O)OC)[nH]c2c1 [ABZ, albendazole, reference compound] | – | parasite weight compared to control ([3]; start 6 weeks post-infection): significant reduction; adverse effects during treatment [3]: No adverse effects; parasite weight compared to placebo group ([4]; start 2 weeks post-infection): significantly lower; adverse effects during treatment [4]: No adverse effects
Cl.OC(CNCc1ccccc1)Cn1c2ccccc2c2ccccc21 (centres unmarked) [MMV000839] | -2.41% | –
OCCNc1nc(Nc2ccc(Cl)c(Cl)c2)nc2ccccc12 [MMV001041] | 6.70% | –
CCOC(=O)c1c(C)n(-c2ccccc2)c2ccc(OC(=O)c3cc(OC)c(OC)c(OC)c3)cc12 [MMV396664] | -2.70% | –
FC(F)(F)c1cccc(Nc2nc(-c3ccccc3)nc3ncccc23)c1 [MMV665798] | 30.38% | –
COc1ccc(-c2c(C)nn3c(N)c(C#N)cnc23)cc1OC [MMV396797] | -51.42% | –
CCN(CC)CCNc1ncnc2c1[nH]c1ccc(Br)cc12 [MMV006545] | -33.20% | –
Cc1cc(N(C)C)nc(Nc2ccc(NC(=O)Nc3ccccc3)cc2)n1 [MMV020243] | 0.64% | –
O=C(Nc1ccc(CN2CCOCC2)cc1)c1ccc(-c2ccc(Br)cc2)o1 [MMV665901] | -20.18% | –
Cc1cc(C)c2nc(N3CCC(C(=O)NCCCN4CCC(N5CCCCC5)CC4)CC3)sc2c1 [MMV019780] | 36.03% | –
Cc1ccc(-c2cc(C(=O)Nc3ccc(S(=O)(=O)N4CCCCC4)cc3)[nH]n2)c(O)c1 [MMV665906] | -8.23% | –
Cc1cc(NC(=O)C2c3ccccc3C(=O)N(CC(C)C)C2c2cccs2)no1 (centres unmarked) [MMV006429] | -37.87% | –
Cc1cccc(-n2ncc3c(O)nc(-n4nc(C)cc4NC(=O)c4cc5ccccc5o4)nc32)c1 [MMV403679] | -25.18% | –
COCCNCC(O)Cn1c2ccc(Cl)cc2c2cc(Cl)ccc21 (centres unmarked) [MMV019017] | 20.81% | –
COc1ccc(C(C)=O)cc1N1C(=O)C2C(C1=O)C1(c3ccccc3)C(=O)C2(c2ccccc2)C(c2ccc(C)cc2)=C1c1ccc(C)cc1 (centres unmarked) [MMV007695] | 4.56% | –
CCOc1cc2c(cc1OCC)C(c1cc(Cl)c(O)c(OCC)c1)NCC2 (centres unmarked) [MMV000481] | -21.47% | –
Clc1ccc2[nH]c3c(NCCCN4CCOCC4)ncnc3c2c1 [MMV006587] | -6.35% | –
Cc1ccc(NC(=O)Nc2cccc(Cl)c2)cc1F [MMV000911] | 185.05% | –
Cc1ccc(Nc2nc(-c3ccccn3)cs2)cc1 [MMV007907] | -25.32% | –
CCc1c(C)c(=N)c2ccccc2n1C.I [MMV006278] | -42.72% | –

SMILES | PGI (% of DB1127 at 10 uM) [1] | further results
CN1c2ccccc2N(C)C1c1ccc2c(c1)OCO2 [MMV666009] | -36.57% | –
O=C(Nc1ccc(Cl)c(Cl)c1)Nc1ccc(Cl)c(Cl)c1 [MMV665852] | 14.8% and 14.75% | activity in PGI assay at 1 μM [1]: no activity at all; IC50 [2]: 4.7 µM; IC50 (adult worms): 0.8 µM; worm burden reduction (S. mansoni; 80 mg/kg): 46%; worm burden reduction (S. mansoni; 400 mg/kg): 52.5%; worm burden reduction (S. mansoni; 4x100 mg/kg): 31.2%
CCCc1cc(O)c2c3c(c(=O)oc2c1)CN(C)CC3 [MMV665841] | -34.14% | –
COc1ccc(-c2nonc2NC(=O)c2cccc(C)c2)cc1OC [MMV665890] | -8.07% | –
COc1nc(Nc2ccc(C(C)C)cc2)nc(OC)n1 [MMV007808] | -19.50% | –
COc1ccc(C(=O)Nc2ccc(Cl)cc2C(=O)Nc2ccncc2)cc1 [MMV665799] | 5.52% | –
Cc1ccc(-c2cc3c(nn2)-c2ccccc2C3=O)cc1 [MMV666021] | -22.93% | –
O=C(NC1CCN(Cc2ccccc2)CC1)c1cc(-c2cccnc2)nc2ccc(Cl)cc12 [MMV020490] | -15.64% | –
COc1cc(C(=O)Nc2nc3c(cc4c5c(cccc53)CC4)s2)cc(OC)c1OC [MMV396665] | -11.85% | –
CCn1nc(-c2ccc(C(=O)OC)cc2)nc2c(=O)n(C)c(=O)nc1-2 [MMV306025] | -10.99% | –
CCCc1c(C)nc2ccc(Br)cc2c1O [MMV666095] | -30.45% | –
O=C(NCc1ccco1)C1CCN(S(=O)(=O)c2ccc(Br)cc2)CC1 [MMV007430] | -0.53% | –
CC(C)c1ccc(CNCC(O)c2ccccc2)cc1.Cl (centres unmarked) [MMV001049] | 12.43% | –
CC(C)(C)C(=O)Nc1ccc(C(=O)Nc2cccc(-c3nc4ccccc4[nH]3)c2)cc1 [MMV665879] | 17.15% | –
CCCCc1c(C)nc2c(OC)cccc2c1O [MMV006820] | 1.39% | –
CCCCCCC(O)(c1ccc(F)cc1)C(CN1CCOCC1)c1ccccc1.Cl (centres unmarked) [MMV000621] | -30.63% | –
CC1(c2ccccc2)Nc2ccccc2-c2nc3ccccc3n21 (centres unmarked) [MMV396715] | -22.40% | –
COc1cc(-c2nc(-c3ccc(Sc4ccccc4)cc3)c(-c3ccccc3)[nH]2)cc(OC)c1O [MMV007273] | -7.16% | –
CN(C)c1ccc(N=Cc2ccc(N3CCOCC3)cc2)cc1 [MMV073843] | -14.14% | –
COc1ccccc1CNC(=O)C1c2ccccc2C(=O)N(CC(C)C)C1c1cccs1 (centres unmarked) [MMV000648] | -8.86% | –
CCOc1cccc2sc(N(Cc3cccnc3)C(=O)C3CCCCC3)nc12 [MMV001230] | -26.73% | –
